According to patent publication US7081465B2, “Alpha-substituted naphthyloxy omega-substituted alky/aryl amino-substituted alkane derivatives as agent for treatment or prophylaxis of diabetes and related metabolic disorders” (Council of Scientific and Industrial Research, priority 2003, dated 2006):
Marks after values point to notes of the source that are not given here.

Legend:
[1] = tested on: HFD fed dyslipemic hamsters; assay: Dyslipemic hamster model (fructose rich high fat diet); type: in vivo, golden syrian hamster
Description: (b) Dyslipemic Hamster Model: Male golden syrian hamster weighing 120–130 gm were divided into control, dyslipemic and dyslipemic plus drug treated group of 8 animals in each.
Dyslipemia was produced by feeding with fructose rich high fat diet(HFD). Dyslipemic hamsters had free acccess to HFD and water ad. Lib for 10 days (day 1 to day 10). Compound 1 was macerated in vehicle containing 0.2% CMC+0.4% tween-80 in distilled water and fed orally at the dose of 300[…] mole/kg from day 4 to day 10 simultaneously with HFD feeding to hamster. Control animals received same amount of vehicle. At the end of the experiment on 10th day, blood was withdrawn and plasma was used for assay of triglyceride(Tg), cholesterol(chol), high density lipoprotein(HDL), glucose, glycerol and free fatty acids(FFA) by standard spectrophotometric methods on auto analyser. In another set of experiment antidyslipemic activity of fenofibrate at the dose of 1000[…] mole/kg was evaluated.

normal rats = assay: Hypoglycaemic activity on OGTT of normal rats (sucrose-loaded rat model); type: in vivo, Sprague Dawley rats; conditions: 100-mg/kg, oral, 120 min post glucose load
Experimental: Sucrose-Loaded Rat Model:
Overnight fasted male Sprague Dawley rats were used for the sucrose-loaded experiment. Blood was collected at ‘0’ min from the tail vein of the animals. After the ‘0’ min blood collection, samples/drugs were given to the test group consisting of 5 rats by oral gavage at a dose of 100 mg/kg. Half an hour post test sample treatment, a sucrose-load of 10.0 gm/kg body weight was given to each rat. The blood was collected at 30, 60, 90 & 120 min post sucrose-load.
The antidiabetic effect of test compounds (compound no. 1 and 4) and standard drug Glybenclamide, Gliclazide on OGTT of normal rats was determined.

[2] = tested on: STZ-induced diabetic rats; assay: Streptozotocin-induced diabetic rat model, single-dose effect on blood glucose; type: in vivo, Sprague Dawley rats; conditions: 100 mg/kg; for lowering on blood glucose in STZ-induced diabetic rats: 1 to 7 hours post drug administration; for start of blood glucose lowering post drug administration: STZ-induced diabetic rats
Experimental: Streptozotocin-Induced Diabetic Rat Model:
Single-dose effect; Sprague Dawley strain male albino rats of average body weight 160±20 g were selected for this study. A calculated amount of the fresh solution of STZ dissolved in 100 mM citrate buffer (ph 4.5) was injected to overnight fasted rats (60 mg/Kg) intraperitoneally. Blood was checked for glucose content 48 h later by glucometer & animals showing blood glucose profile above 250 mg/dl were selected and were divided into different groups. Blood-glucose levels were again tested at 1, 2, 3, 4, 5, 6, 7 and 24 h post test sample/drug administration. Food but not water was withdrawn from the cages during the experiment.
The effect of Test compound 1 and standard antidiabetic drug Glybenclamide and gliclazide on blood glucose lowering in STZ-induced diabetic rats were determined. […] The lowering started from 1-hour that persisted up to 7-hours post drug administration.

[3] = tested on: hyperlipedemic rats (triton WR-1339); assay: Lipid lowering activity, Triton model (triton WR-1339 induced hyperlipedemia); type: in vivo, Charles foster rats; conditions: 100 mg/kg oral simultaneously with triton, plasma after 18 hrs, vs hyperlipemic group
Experimental: (a)Triton Model: Male Charles foster rats weighing 200–225 g were divided into control, hyperlipedemic and hyperlipedemic plus drug treated groups containing six animals each. Hyperlipedemia was induced by administration of triton WR-1339(400 mg/kg,IP). All animals were maintained on standard pellet diet and water ad lib. Test compound no. 1 and Gugulipid (standard drug) were macerated with 2% aqueous gum acacia and this suspension was fed orally at the dose of 100 mg/kg simultaneously with triton. The animals of control group received same amount of gum acacia. At the end of experiment, after 18 hrs, blood was withdrawn from retro orbital plexus and plasma was used for the assay of total cholesterol, phospholipid and triglyceride by standard spectrophotometric method. Results: Administration of triton in rats produced marked hyperlipedemia as observed by the increased levels of plasma cholesterol, phospholipid and triglyceride by 2.92, 3.32, 3.64 folds respectively (Table-1).

[4] = 1000 μmol/kg, another set of experiment
[5] = dose 1000 (μ)mole/kg, HFD fed dyslipemic hamsters
[6] = 300 μmol/kg oral day 4 to day 10, plasma on 10th day
[7] = dose 300 (μ)mole/kg, HFD fed hamsters

In the case of CC(C)OC(=O)C(C)(C)Oc1ccc(C(=O)c2ccc(Cl)cc2)cc1 [Fenofibrate], the “per cent change in CHOL” value [1, 4] is reported as −30** per cent, the “per cent change in FFA” value [1, 4] is reported as −53** per cent and the “per cent change in GLU” value [1, 4] is reported as −33** per cent. For the same molecule, the “per cent change in GLY” value [1, 4] was −52** per cent, the “per cent change in HDL” value [1, 4] was “+33** per cent” and the “per cent change in TG” value [1, 4] was −77** per cent. For the same molecule, the “increase in plasma HDL” value [1, 5] was 33%, the “lowering in plasma FFA” value [1, 5] was 53% and the “lowering in plasma Tg” value [1, 5] was 77%. For the same molecule, the “lowering in plasma chol” value [1, 5] was 30%, the “lowering in plasma glucose” value [1, 5] was 33% and the “lowering in plasma glycerol” value [1, 5] was 52%.

COc1ccc(Cl)cc1C(=O)NCCc1ccc(S(=O)(=O)NC(=O)NC2CCCCC2)cc1 [Glybenclamide] was tested, and the “lowering on OGTT of normal rats” value (normal rats) was 33.9%, the “lowering on blood glucose in STZ-induced diabetic rats” value (“lowering on blood glucose” below) [2] was 32.8% and the “start of blood glucose lowering post drug administration” value [2] was 1 h.

With Cc1ccc(S(=O)(=O)NC(=O)NN2CC3CCCC3C2)cc1 (stereo not drawn) [Gliclazide] the “lowering on OGTT of normal rats” value (normal rats) was 44.8%, the “lowering on blood glucose” value [2] was 27.7% and the “start of blood glucose lowering post drug administration” value [2] was 1 h.

For COc1ccc(NCCCOc2ccc3ccccc3c2)cc1 [Compound 1, N-(4-Methoxyphenyl)-[3-(naphthalen-2-yloxy)propyl]amine], the “lowering on OGTT of normal rats” value (normal rats) was 33.6%, the “lowering on blood glucose” value [2] was 28.0% and the “start of blood glucose lowering post drug administration” value [2] was 1 h. The “% lowering of plasma lipids: Triglyceride” value [3] was 28%, the “% lowering of plasma lipids: Cholesterol” value ([3]; listed as Test Compound 1) was 26* % and the “% lowering of plasma lipids: Phospholipid” value ([3]; listed as Test Compound 1) was 33** %. The “% lowering of plasma lipids: Triglyceride” value ([3]; listed as Test Compound 1) was 28* %, the “per cent change in CHOL” value [1, 6] was −8 per cent and the “per cent change in GLU” value [1, 6] was −31** per cent. For the same molecule, the “per cent change in GLY” value [1, 6] was −14 per cent, the “per cent change in HDL” value [1, 6] was “+15 per cent” and the “per cent change in TG” value [1, 6] was −48** per cent. The “change in FFA levels” value [1, 7] was “No significant change”, the “increase in plasma HDL” value [1, 7] was 15% and the “reduced level of plasma Tg” value [1, 7] was 48%. The “reduced level of plasma chol” value [1, 7] was 8%, the “reduced level of plasma glucose” value [1, 7] was 31% and the “reduced level of plasma glycerol” value [1, 7] was 14%.
